Experimental data reported in the NIST ThermoML archive (doi:10.1016/j.tca.2018.11.020).

Legend:
[1] = Adiabatic calorimetry
[2] = Molar enthalpy of transition or fusion; details: Crystal; Adiabatic calorimetry
[3] = molar heat capacity at constant pressure; details: 101.33 kPa, Vacuum adiabatic calorimetry

CC(C)O [propan-2-ol]
[1]
Details	Glass transition temperature [°C]	Triple point temperature [K]
Crystal	–	184.7
Glass	-156.0	–

Details	Molar enthalpy of transition or fusion [kJ/mol]
[2]	5.33

[3]
Details	molar heat capacity at constant pressure [J/K/mol]
85 K, Glass	51.12
90 K, Glass	53.51
95 K, Glass	56.01
100 K, Crystal	54.18
100 K, Glass	58.63
105 K, Crystal	56.19
105 K, Glass	61.36
110 K, Crystal	58.21
110 K, Glass	64.24
115 K, Crystal	60.23
120 K, Crystal	62.27
120 K, Metastable liquid	103.93
125 K, Crystal	64.31
125 K, Metastable liquid	103.76
130 K, Crystal	66.36
130 K, Metastable liquid	103.51
135 K, Crystal	68.41
135 K, Metastable liquid	103.26
140 K, Crystal	70.47
145 K, Crystal	72.55
150 K, Crystal	74.62
155 K, Crystal	76.7
160 K, Crystal	78.79
165 K, Crystal	80.88
